# Source: ChEMBL document CHEMBL1147043, “Comparative metabolism of radiolabeled muraglitazar in animals and humans by quantitative and qualitative metabolite profiling” (Drug Metab Dispos, 2007)
# What was measured:
# [1] = Biodistribution in orally dosed Beagle dog feces assessed as 9-hydroxy muraglitazar level by LC/MS analysis; type: ADME, organism-based, Canis lupus familiaris; conditions: in vivo, po
# Plasma [2] = assay: Biodistribution in orally dosed human plasma assessed as O-Dealkyl muraglitazar level after 12 hrs by LC/MS analysis; type: ADME, organism-based; conditions: in vivo, po
# [3] = Metabolic stability in cynomolgus monkey hepatocytes assessed as 9-hydroxy-O-demethyl muraglitazar level by LC/MS analysis relative to control; type: ADME, cell-based, Macaca fascicularis, Hepatocyte
# Plasma [4] = assay: Biodistribution in orally dosed cynomolgus monkey plasma assessed as muraglitazar 12-carboxylic acid level after 4 hrs by LC/MS analysis; type: ADME, organism-based, Macaca fascicularis; conditions: in vivo, po
# Homo sapiens = assay: AUC (0 to T) in human at 10 mg, po after 72 hrs; type: ADME, organism-based, Plasma; design: dose 10 mg, time < 72 hr, route oral; conditions: in vivo
# [5] = Biodistribution in orally dosed cynomolgus monkey feces assessed as 17-hydroxy muraglitazar level by LC/MS analysis; type: ADME, organism-based, Macaca fascicularis; conditions: in vivo, po
# [6] = Biodistribution in orally dosed cynomolgus monkey urine assessed as muraglitazar 12-carboxylic acid level by LC/MS analysis; type: ADME, organism-based, Macaca fascicularis; conditions: in vivo, po
# Plasma [7] = assay: Biodistribution in orally dosed Sprague-Dawley rat plasma assessed as O-demethyl muraglitazar level after 12 hrs by LC/MS analysis; type: ADME, organism-based; conditions: in vivo, po
# [8] = Biodistribution in orally dosed Beagle dog feces assessed as 8-hydroxy muraglitazar level by LC/MS analysis; type: ADME, organism-based, Canis lupus familiaris; conditions: in vivo, po
# [9] = Metabolic stability in CD1 mouse hepatocytes assessed as O-demethyl muraglitazar glucuronide level by LC/MS analysis relative to control; type: ADME, cell-based, Hepatocyte
# Plasma [10] = assay: Biodistribution in orally dosed Beagle dog plasma assessed as muraglitazar glucuronide level after 1 hr by LC/MS analysis; type: ADME, organism-based, Canis lupus familiaris; conditions: in vivo, po
# [11] = Biodistribution in orally dosed cynomolgus monkey feces assessed as O-dealkyl muraglitazar level by LC/MS analysis; type: ADME, organism-based, Macaca fascicularis; conditions: in vivo, po
# [12] = Biodistribution in orally dosed cynomolgus monkey feces assessed as 9-hydroxy-O-demethyl muraglitazar level by LC/MS analysis; type: ADME, organism-based, Macaca fascicularis; conditions: in vivo, po
# [13] = Metabolic stability in cynomolgus monkey hepatocytes assessed as hydroxyl muraglitazar glucuronide level by LC/MS analysis relative to control; type: ADME, cell-based, Macaca fascicularis, Hepatocyte
# [14] = Metabolic stability in cynomolgus monkey hepatocytes assessed as radioactivity recovaries at 25.6 ug/mL after 4 hrs; type: ADME, cell-based, Macaca fascicularis, Hepatocyte
# [15] = Biodistribution in orally dosed Beagle dog feces assessed as 12-hydroxy-O-demethyl muraglitazar level by LC/MS analysis; type: ADME, organism-based, Canis lupus familiaris; conditions: in vivo, po
# [16] = Metabolic stability in CD1 mouse hepatocytes assessed as 17-hydroxy muraglitazar level by LC/MS analysis relative to control; type: ADME, cell-based, Hepatocyte
# [17] = Biodistribution in orally dosed human feces assessed as imide derivative of muraglitazar level by LC/MS analysis; type: ADME, organism-based; conditions: in vivo, po
# [18] = Drug concentration in bile duct-cannulated CD1 mouse bile at 40 mg/kg, po after 24 hrs; type: ADME, organism-based; design: dose 40 mg/kg, route oral; conditions: read-out: Drug uptake
# Rattus norvegicus [19] = assay: Biodistribution in orally dosed Sprague-Dawley rat urine assessed as 8,12-dihydroxy muraglitazar level by LC/MS analysis; type: ADME, organism-based; conditions: in vivo, po
# [20] = Drug concentration in bile duct-cannulated cynomolgus monkey bile assessed as recovery of radioactive dose at 5 mg/kg, po after 48 hrs; type: ADME, organism-based, Macaca fascicularis; design: dose 5 mg/kg, route oral; conditions: in vivo
# Hepatocyte [21] = assay: Metabolic stability in Sprague-Dawley rat hepatocytes assessed as 12,17-dihydroxy muraglitazar level by LC/MS analysis relative to control; type: ADME, cell-based
# Hepatocyte [22] = assay: Metabolic stability in human hepatocytes assessed as 12-hydroxy muraglitazar level by LC/MS analysis relative to control; type: ADME, cell-based
# Rattus norvegicus [23] = assay: Biodistribution in orally dosed Sprague-Dawley rat feces assessed as imide derivative of muraglitazar level by LC/MS analysis; type: ADME, organism-based; conditions: in vivo, po
# Rattus norvegicus [24] = assay: Biodistribution in orally dosed Sprague-Dawley rat feces assessed as 8-hydroxy muraglitazar level by LC/MS analysis; type: ADME, organism-based; conditions: in vivo, po
# Plasma [25] = assay: Biodistribution in orally dosed Beagle dog plasma assessed as O-Dealkyl muraglitazar level after 1 hr by LC/MS analysis; type: ADME, organism-based, Canis lupus familiaris; conditions: in vivo, po
# [26] = Metabolic stability in CD1 mouse hepatocytes assessed as O-demethyl muraglitazar level by LC/MS analysis relative to control; type: ADME, cell-based, Hepatocyte
# Rattus norvegicus [27] = assay: Biodistribution in orally dosed Sprague-Dawley rat feces assessed as O-dealkyl muraglitazar level by LC/MS analysis; type: ADME, organism-based; conditions: in vivo, po
# Rattus norvegicus [28] = assay: Biodistribution in orally dosed Sprague-Dawley rat feces assessed as O-demethyl muraglitazar level by LC/MS analysis; type: ADME, organism-based; conditions: in vivo, po
# Plasma [29] = assay: Biodistribution in orally dosed Sprague-Dawley rat plasma assessed as 12,17-dihydroxy muraglitazar level after 12 hrs by LC/MS analysis; type: ADME, organism-based; conditions: in vivo, po
# Plasma [30] = assay: Biodistribution in orally dosed human plasma assessed as O-demethyl muraglitazar level after 4 hrs by LC/MS analysis; type: ADME, organism-based; conditions: in vivo, po
# Rattus norvegicus [31] = assay: Biodistribution in orally dosed Sprague-Dawley rat urine assessed as 8-hydroxy muraglitazar level by LC/MS analysis; type: ADME, organism-based; conditions: in vivo, po
# Hepatocyte [32] = assay: Metabolic stability in Sprague-Dawley rat hepatocytes assessed as O-demethyl muraglitazar level by LC/MS analysis relative to control; type: ADME, cell-based
# [33] = Fecal excretion of compound in orally dosed cynomolgus monkey within 96 hrs; type: ADME, organism-based, Macaca fascicularis; conditions: faeces, po, read-out: Activity
# Plasma [34] = assay: Biodistribution in orally dosed cynomolgus monkey plasma assessed as 12-hydroxy-O-demethyl muraglitazar level after 12 hrs by LC/MS analysis; type: ADME, organism-based, Macaca fascicularis; conditions: in vivo, po
# [35] = Metabolic stability in CD1 mouse hepatocytes assessed as 12-hydroxy-O-demethyl muraglitazar level by LC/MS analysis relative to control; type: ADME, cell-based, Hepatocyte
# Hepatocyte [36] = assay: Metabolic stability in Sprague-Dawley rat hepatocytes assessed as 9-hydroxy muraglitazar level by LC/MS analysis relative to control; type: ADME, cell-based
# Plasma [37] = assay: Biodistribution in orally dosed human plasma assessed as muraglitazar glucuronide level after 4 hrs by LC/MS analysis; type: ADME, organism-based; conditions: in vivo, po
# [38] = Drug concentration in cynomolgus monkey urine assessed as recovery of radioactive dose at 2 mg/kg, po after 168 hrs; type: ADME, organism-based, Macaca fascicularis; design: dose 2 mg/kg, route oral; conditions: in vivo
# Hepatocyte [39] = assay: Metabolic stability in Sprague-Dawley rat hepatocytes assessed as 8-hydroxy muraglitazar level by LC/MS analysis relative to control; type: ADME, cell-based
# [40] = Tmax in cynomolgus monkey at 1.9 mg/kg, po after 24 hrs; type: ADME, organism-based, Macaca fascicularis; design: dose 1.9 mg/kg, route oral; conditions: in vivo
# Hepatocyte [41] = assay: Metabolic stability in human hepatocytes assessed as hydroxyl-O-demethyl muraglitazar glucuronide level by LC/MS analysis relative to control; type: ADME, cell-based
# Hepatocyte [42] = assay: Metabolic stability in human hepatocytes assessed as 9-hydroxy-O-demethyl muraglitazar level by LC/MS analysis relative to control; type: ADME, cell-based
# Rattus norvegicus [43] = assay: Biodistribution in orally dosed Sprague-Dawley rat feces assessed as 12-hydroxy-O-demethyl muraglitazar level by LC/MS analysis; type: ADME, organism-based; conditions: in vivo, po
# [44] = Biodistribution in orally dosed human urine assessed as O-dealkyl muraglitazar level by LC/MS analysis; type: ADME, organism-based; conditions: in vivo, po
# [45] = Biodistribution in orally dosed human feces assessed as muraglitazar 12-carboxylic acid level by LC/MS analysis; type: ADME, organism-based; conditions: in vivo, po
# [46] = Metabolic stability in cynomolgus monkey hepatocytes assessed as O-Dealkyl muraglitazar level by LC/MS analysis relative to control; type: ADME, cell-based, Macaca fascicularis, Hepatocyte
# Cynomolgus monkey = assay: AUC (0 to T) in cynomolgus monkey at 1.9 mg/kg, po after 24 hrs; type: ADME, organism-based, Macaca fascicularis, Plasma; design: time < 24 hr, dose 1.9 mg/kg, route oral; conditions: in vivo
# Hepatocyte [47] = assay: Metabolic stability in Sprague-Dawley rat hepatocytes assessed as O-dealkyl-O-demethyl muraglitazar level by LC/MS analysis relative to control; type: ADME, cell-based
# [48] = Drug concentration in cynomolgus monkey feces assessed as recovery of radioactive dose at 2 mg/kg, po after 168 hrs; type: ADME, organism-based, Macaca fascicularis; design: dose 2 mg/kg, route oral; conditions: in vivo
# [49] = Drug concentration in bile duct-cannulated Sprague-Dawley rat bile assessed as recovery of radioactive dose at 11 mg/kg, po after 24 hrs; type: ADME, organism-based; design: dose 11 mg/kg, route oral; conditions: in vivo
# Plasma [50] = assay: Biodistribution in orally dosed cynomolgus monkey plasma assessed as 12,17-dihydroxy muraglitazar level after 12 hrs by LC/MS analysis; type: ADME, organism-based, Macaca fascicularis; conditions: in vivo, po
smiles,measurement,setting,value
COc1ccc(OC(=O)N(CC(=O)O)Cc2ccc(OCCc3nc(-c4ccccc4)oc3C)cc2)cc1 [MURAGLITAZAR],Drug uptake,[1],0.85%
same,Drug uptake,Plasma [2],0.2%
same,Drug uptake,[3],0.5%
same,Drug uptake,Plasma [4],< 0.05%
same,AUC,Homo sapiens,9 ugequiv.h/ml
same,Drug uptake,[5],25.73%
same,Drug uptake,[6],0.04%
same,Drug uptake,Plasma [7],3.5%
same,Drug uptake,[8],0.18%
same,Drug uptake,[9],< 0.2%
same,Drug uptake,Plasma [10],< 0.05%
same,Drug uptake,[11],2.81%
same,Drug uptake,[12],0.32%
same,Drug uptake,[13],2.8%
same,Stability,[14],99.2%
same,Drug uptake,[15],0.38%
same,Drug uptake,[16],5.4%
same,Drug uptake,[17],2.46%
same,dose excreted at 24 h,[18],13.2%
same,Drug uptake,Rattus norvegicus [19],< 0.01%
same,Drug uptake,[20],35.7%
same,Drug uptake,Hepatocyte [21],0.3%
same,Drug uptake,Hepatocyte [22],1.9%
same,Drug uptake,Rattus norvegicus [23],2.63%
same,Drug uptake,Rattus norvegicus [24],4.39%
same,Drug uptake,Plasma [25],2%
same,Drug uptake,[26],1.2%
same,Drug uptake,Rattus norvegicus [27],1.75%
same,Drug uptake,Rattus norvegicus [28],34.2%
same,Drug uptake,Plasma [29],< 0.05%
same,Drug uptake,Plasma [30],0.5%
same,Drug uptake,Rattus norvegicus [31],< 0.01%
same,Drug uptake,Hepatocyte [32],2.2%
same,dose excreted at 96 h,[33],75%
same,Drug uptake,Plasma [34],2.7%
same,Drug uptake,[35],3%
same,Drug uptake,Hepatocyte [36],0.3%
same,Drug uptake,Plasma [37],4.2%
same,Drug uptake,[38],3.7%
same,Drug uptake,Hepatocyte [39],< 0.2%
same,Tmax,[40],1 h
same,Drug uptake,Hepatocyte [41],< 0.2%
same,Drug uptake,Hepatocyte [42],< 0.2%
same,Drug uptake,Rattus norvegicus [43],2.63%
same,Drug uptake,[44],0.06%
same,Drug uptake,[45],0.13%
same,Drug uptake,[46],7.6%
same,AUC,Cynomolgus monkey,71 ugequiv.h/ml
same,Drug uptake,Hepatocyte [47],0.3%
same,Drug uptake,[48],80.4%
same,Drug uptake,[49],65.1%
same,Drug uptake,Plasma [50],1%
